Laboratory results taken from article PMC9283133, “Human cytosolic transaminases: side activities and patterns of discrimination towards physiologically available alternative substrates” (Cellular and Molecular Life Sciences: CMLS, 2022).
Each block holds one molecule with its values, some of them ahead of it.

Experiments:
[1] = target: T1, PSAT1 (Homo sapiens, UniProt Q9Y617); assay: end-point GDH assay of alpha-ketoglutarate; LC-MS of product; assay type: biochemical; settings: L-Glu 1 mM as donor; pH 7.2, 37 C, 16 h
T1 sequence (Q9Y617 1-370): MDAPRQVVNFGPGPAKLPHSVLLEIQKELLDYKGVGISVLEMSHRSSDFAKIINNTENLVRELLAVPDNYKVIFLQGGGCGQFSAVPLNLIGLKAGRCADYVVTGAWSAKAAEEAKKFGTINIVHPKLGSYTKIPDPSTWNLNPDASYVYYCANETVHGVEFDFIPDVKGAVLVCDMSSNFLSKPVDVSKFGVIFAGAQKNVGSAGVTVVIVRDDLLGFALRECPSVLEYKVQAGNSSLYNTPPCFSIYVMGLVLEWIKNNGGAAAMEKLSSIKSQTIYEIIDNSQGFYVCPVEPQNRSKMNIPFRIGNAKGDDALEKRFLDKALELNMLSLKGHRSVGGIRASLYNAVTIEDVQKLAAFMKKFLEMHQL

[2] = target: T2, MDH1 (cytosolic malate dehydrogenase) (Homo sapiens, UniProt P40925); assay: spectrophotometric reduction with NADH; assay type: biochemical
T2 construct: from human kidney cDNA, pET28a, His6-tagged, expressed in E. coli BL21(DE)
T2 sequence (P40925 2-334): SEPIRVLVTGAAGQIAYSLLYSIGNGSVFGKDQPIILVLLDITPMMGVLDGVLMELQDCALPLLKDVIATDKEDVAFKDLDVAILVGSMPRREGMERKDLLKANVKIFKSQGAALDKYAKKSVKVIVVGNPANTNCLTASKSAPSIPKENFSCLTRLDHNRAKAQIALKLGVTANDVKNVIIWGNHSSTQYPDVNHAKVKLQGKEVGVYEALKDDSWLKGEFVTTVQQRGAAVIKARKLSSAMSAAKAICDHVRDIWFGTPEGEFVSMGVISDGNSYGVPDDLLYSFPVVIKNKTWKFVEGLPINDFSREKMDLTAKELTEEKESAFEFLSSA

[3] = target: T3, TAT (tyrosine aminotransferase) (Homo sapiens, UniProt P17735); assay: continuous coupled assay with MDH1 and NADH; assay type: biochemical; settings: alpha-ketoglutarate 0.5 mM as acceptor; pH 8.0; read-out: apparent KM
T3 sequence (P17735 41-454): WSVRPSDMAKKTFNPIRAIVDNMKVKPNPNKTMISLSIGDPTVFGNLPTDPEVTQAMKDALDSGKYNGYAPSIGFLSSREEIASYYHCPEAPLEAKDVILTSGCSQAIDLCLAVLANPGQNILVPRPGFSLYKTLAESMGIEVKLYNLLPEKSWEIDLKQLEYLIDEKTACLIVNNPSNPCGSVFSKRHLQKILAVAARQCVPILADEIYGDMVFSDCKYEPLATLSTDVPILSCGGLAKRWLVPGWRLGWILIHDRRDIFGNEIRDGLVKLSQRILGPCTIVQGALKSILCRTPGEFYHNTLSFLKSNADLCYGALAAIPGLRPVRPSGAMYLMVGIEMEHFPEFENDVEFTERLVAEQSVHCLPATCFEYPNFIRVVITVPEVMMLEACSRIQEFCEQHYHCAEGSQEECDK
Description: continuous coupled assay with MDH1 and NADH on TAT (tyrosine aminotransferase) | the opposite is true for TAT (Fig. 3A)

[4] = target: T4, LDHA (lactate dehydrogenase A) (Homo sapiens, UniProt P00338); assay: spectrophotometric reduction with NADH; assay type: biochemical
T4 construct: gift clone

[5] = substrate: N[C@@H](Cc1c[nH]c2ccccc12)C(=O)O; assay: continuous coupled assay with MDH1 and NADH; assay type: biochemical, Homo sapiens; settings: pyruvate 3 mM as acceptor, pH 8.0

end-point GDH assay of alpha-ketoglutarate; LC-MS of product [1]: DHAP, which reacted primarily with PSAT1
Molecule: O=C(CO)COP(=O)(O)O [DHAP]

Molecule: O=C(O)C(=O)Cc1c[nH]c2ccccc12 [IndPy]
spectrophotometric reduction with NADH [2]: recombinant MDH1 reduced with good efficiency IndPy

Km [3]: > 10 mM
Molecule: N[C@@H](Cc1c[nH]c2ccccc12)C(=O)O [L-Trp]

Molecule: CC(O)C(=O)C(=O)O (stereo not drawn) [3-hydroxy-2-ketobutyrate]
spectrophotometric reduction with NADH [4]: 3-hydroxy-2-ketobutyrate, is a substrate for LDHA

B1: GTK (glutamine transaminase K; KYAT1) (Homo sapiens) (protein)
chain: MAKQLQARRLDGIDYNPWVEFVKLASEHDVVNLGQGFPDFPPPDFAVEAFQHAVSGDFMLNQYTKTFGYPPLTKILASFFGELLGQEIDPLRNVLVTVGGYGALFTAFQALVDEGDEVIIIEPFFDCYEPMTMMAGGRPVFVSLKPGPIQNGELGSSSNWQLDPMELAGKFTSRTKALVLNTPNNPLGKVFSREELELVASLCQQHDVVCITDEVYQWMVYDGHQHISIASLPGMWERTLTIGSAGKTFSATGWKVGWVLGPDHIMKHLRTVHQNSVFHCPTQSQAAVAESFEREQLLFRQPSSYFVQFPQAMQRCRDHMIRSLQSVGLKPIIPQGSYFLITDISDFKRKMPDLPGAVDEPYDRRFVKWMIKNKGLVAIPVSIFYSVPHQKHFDHYIRFCFVKDEATLQAMDEKLRKWKVEL
notes: cytosolic enzyme
Km [5]: 0.14 ± 0.03 mM | kcat/Km [5]: 490 ± 30 M⁻¹ s⁻¹
